Earlier results, collected in patent US20090118503A1, “FAAH INHIBITORS” (priority 2007, published 2009).

What was measured:
MCF-7 cells = settings: up to 100 μM

| SMILES | cell viability (as assessed by trypan blue) (MCF-7 cells) | ability to inhibit prostaglandin synthesis (prostaglandin synthesis) |
| --- | --- | --- |
| CCCCC/C=C\C/C=C\C/C=C\C/C=C\CCCC(=O)NCCO [anandamide] | No significant decrease in cell viability |  |
| Cc1c(CC(=O)O)c2cc(O)ccc2n1C(=O)c1ccc(Cl)cc1 [desmethyl metabolite, (1-(4-chlorobenzoyl)-5-hydroxy-2-methyl-1H-indol-3-yl]acetic acid] |  | some ability to inhibit prostaglandin synthesis |
